# Test results reported in patent US5942511A, “Allylthiopyridazine derivatives and process for preparing the same” (Kwon; Soon Kyoung, priority 1998, dated 1999).
# Experiments:
# [1] = Acute toxicity test, single oral administration; type: in vivo; settings: in vivo, mouse, Litchfield-Wilcoxon method, 95% confidence interval 3.26-4.78 g/kg (Example 4)
# Method: (§1) Moreover, as a result of an acute toxicity test using mouse to evaluate the general toxicity of the compound according to the present invention, when the compound is single administered via oral route, the LD50 value of the respective compound is 3.5 g/kg or more. Therefore, the compound of the present invention is determined as being very safe.
# (§2) The acute toxicity test was carried out to quantitatively and qualitatively examine the toxicity which occurs within a short period of time after a single administration of the test compound to the experimental animal.
# (§3) In this experiment, the acute toxicity test was conducted using 5-6 weeks ICR male mouse obtained from Korea Experimental Animal Center. From 6 p.m., the day before administration of the test compound, to 9 a.m. the day on which the test compound is administered, mouse was fasted. The test compound was ground and suspended in corn oil and then administered in the dose of 1000 to 6000 mg/kg to the experimental animal. For each dose, 6 animals were used. The test compound was prepared and used on that day, and was single administered via oral route by means of a needle. After the compound of Example 4, as typical example of the compound according to the present invention was administered, the survived and died animals were observed during 14 days.
# ICR male mouse = assay: Acute toxicity test, single oral administration; type: in vivo; settings: 14 days
# Method: as §1, §2, §3
# [2] = test system: serum ALT (alanine aminotransferase); assay: Effect of inhibiting hepatic disorder induced by carbon tetrachloride: serum ALT; type: in vivo, male ICR mice; settings: CCl4 100 μl/kg i.p., compound 50 mg/kg per day oral, 3 days
# Excerpt: First, the effects of allylthiopyridazine derivative of formula (I) for prevention and treatment of hepatic diseases was examined using carbon tetrachloride model and acetaminophen model.
# Carbon tetrachloride model [see, Philippe letteron et al., Biochemical Pharmacology, 39, 12, 2027-2034, 1990] is most frequently used as an experimental model of hepatic disorder and has been established on the basis of the fact that carbon tetrachloride is converted into trichloromethyl free radical (CCl3 .), a highly toxic metabolite, by the action of cytochrome P-450 in body. This metabolite strongly binds with thiol group of liver microsomal membrane protein to produce a lipid radical, which is then converted into peroxy radical in the presence of oxygen, thereby stimulating the peroxidation reaction of membrane lipid. That is, carbon tetrachloride inhibits protein biosynthesis in liver, increases blood ALT (alanine aminotransferase) and causes centrilobular necrosis of liver cells.
# (§4) In the present invention, the inhibiting effect of the compound of formula (I) on hepatic disorder, induced by carbon tetrachloride and acetaminophene, was determined after oral administration of the novel compound according to the present invention to mouse as the experimental animal for 3 days. The degree of liver damage in respective experimental animal was determined by measuring ALT and LDH levels in blood [see, Biol. Pharm. Bull., 20, 4, 381-385, 1997; Toxicology and Applied Pharmacology, 95, 1-11, 1988], and further by removing the liver, staining (×100) the liver with hematoxylin and eosin and then observing with microscope to examine the degree of hepatocyte necrosis.
# Effect of inhibiting hepatic disorder induced by carbon tetrachloride
# (§5) The liver protective effect of the compound according to the present invention was examined according to the known method [see, Philippe letteron et al., Biochemical Pharmacology, 39, 12, 2027-2034, 1990] as specifically described below.
# (§6) The compound according to the present invention was suspended in corn oil and the resulting suspension was administered in an amount of 1.0 ml/kg. Each group was composed of 3 to 10 male ICR mice (5-6 weeks) and the test compound was orally administered for 3 days in the dose of 50 mg/kg per day. After the test compound was administered, carbon tetrachloride was intraperitoneally injected in an amount of 100 μl/kg. In this experiment, silymarin was used as the comparative compound. After 24 hours from administration of carbon tetrachloride, blood was taken from the test animal by cardiac perforation and ALT value in serum was determined. The result obtained is described in the following Table 2 (in which ALT value is represented by mean±SE). The ALT unit in serum was determined by centrifuging blood to separate serum as the supernatant, and then the separated serum were subjected to Reitman-Frankel method by means of a commercially available kit (BC101-O,P, Youngdong Pharm.). That is, DL-alanine and α-ketoglutarate were used as the substrate solution to which 2,4-dinitrophenylhydrazine was added to produce hydrazone. Then, sodium hydroxide was added to hydrazone to colorize and then the absorbance was measured at 505 nm.
# hepatocyte necrosis = assay: Effect of inhibiting hepatic disorder induced by carbon tetrachloride: hepatocyte necrosis; type: in vivo, male ICR mice; settings: CCl4 model, 50 mg/kg per day oral, 3 days
# Method: as §4, §5, §6
# In addition, liver was removed from the test animals, stained (×100) with hematoxylin and eosin and then observed by microscope. The degree of hepatocyte necrosis was evaluated according to the following 5 grades: 0 no lesion, 1 mild lesion, 2 moderate lesion, 3 severe lesion and 4 diffused lesion.
# [3] = test system: serum ALT (alanine aminotransferase); assay: Effect of inhibiting hepatic disorder induced by acetaminophen (APAP): serum ALT; type: in vivo, male ICR mice; settings: APAP 0.5 g/kg oral, compound 50 mg/kg per day oral, 3 days
# Excerpt: (§7) In addition, the liver protective effects of the compound of the present invention can also be confirmed by acetaminophen model [see, Wang et al., Toxicology and applied Pharmacology, 136, 146-154, 1996]. Acetaminophen is rapidly metabolized by CYP2E1 to cause hepatic toxicity, which results in structural and functional change in liver cellular membrane, causing necrosis in hepatic lobule, an increase in blood ALT and LDH (lactate dehydrogenase) levels.
# as §4
# (§8) Effect of inhibiting hepatic disorder induced by acetaminophen (APAP)
# (§9) The liver protective effect of the compound according to the present invention was examined according to the known method [see, Wang et al., Toxicology and applied Pharmacology, 136, 146-154, 1996] as specifically described below.
# (§10) The compound according to the present invention was suspended in corn oil and the resulting suspension was administered in an amount of 1.0 ml/kg. Each group was composed of 3 to 10 male ICR mice (5-6 weeks) and the test compound was orally administered for 3 days in the dose of 50 mg/kg per day. After 2 hours from the last administration of the test compound, acetaminophen was orally administered in an amount of 0.5 g/kg. In this experiment, silymarin was used as the comparative compound. After 22 hours from the administration of acetaminphen, blood was taken from the individual test animal and ALT and LDH values in serum were determined. The results as obtained are described in the following Tables 4 and 5 (in which ALT and LDH values are represented by mean±SE). In addition, liver was removed from the test animals and then observed according to the same manner as Experiment 3 to evaluate the degree of hepatocyte necrosis.
# [4] = test system: serum LDH (lactate dehydrogenase); assay: Effect of inhibiting hepatic disorder induced by acetaminophen (APAP): serum LDH; type: in vivo, male ICR mice; settings: APAP 0.5 g/kg oral, compound 50 mg/kg per day oral, 3 days
# Excerpt: as §7, §4, §8, §9, §10
structure (smiles),measurement,setting,value
"C=CCSc1ccc(OC)nn1 [Example 4, 3-methoxy-6-allylthiopyridazine]",LD50 at 336 h,[1],3950 mg/kg
same,D/T (number of died animals / number of test animals),ICR male mouse; 1000 mg/kg,0/6
same,D/T (number of died animals / number of test animals),ICR male mouse; 2000 mg/kg,0/6
same,D/T (number of died animals / number of test animals),ICR male mouse; 3000 mg/kg,1/6
same,D/T (number of died animals / number of test animals),ICR male mouse; 4000 mg/kg,3/6
same,D/T (number of died animals / number of test animals),ICR male mouse; 5000 mg/kg,4/6
same,D/T (number of died animals / number of test animals),ICR male mouse; 6000 mg/kg,6/6
same,Inhibiting rate (serum ALT),[2],57%
same,Serum ALT value,[2]; mean±SE,3966 ± 1116 KA unit/l
same,Degree of necrosis 0: number of animals,hepatocyte necrosis; grade 0 no lesion,0
same,Degree of necrosis 1: number of animals,hepatocyte necrosis; grade 1 mild lesion,1
same,Degree of necrosis 2: number of animals,hepatocyte necrosis; grade 2 moderate lesion,5
same,Degree of necrosis 3: number of animals,hepatocyte necrosis; grade 3 severe lesion,2
same,Degree of necrosis 4: number of animals,hepatocyte necrosis; grade 4 diffused lesion,2
same,Inhibiting rate (serum ALT),[3],97%
same,Serum ALT value,[3]; mean±SE,186 ± 118 KA unit/l
same,Inhibiting rate (serum LDH),[4],99.8%
same,Serum LDH value,[4]; mean±SE,703 ± 83 KA unit/l
